Test results taken from US11654140B2, “Treatment of ocular inflammatory diseases using laquinimod” (Active Biotech AB, priority 2012, dated 2023).

Columns and labels:
[1] = test system: S-antigen-induced experimental autoimmune uveitis (EAU) in rats; assay: S-antigen-induced experimental autoimmune uveitis in rats (EAU model), slit lamp clinical score (Example 1); format: in vivo, rat; details: for Slit lamp ocular evaluation of both eyes, Incidence % / Slit lamp ocular evaluation of both eyes, mean clinical score: 10 μl once daily both eyes from Day 7; for Slit lamp ocular evaluation of both eyes, mean clinical score: score 0-6
Procedure: A 1% (10 mg/ml) and a 5% (50 mg/ml) solution of laquinimod sodium were prepared in sterile water. Dissolution of laquinimod powder was achieved by shaking, stirring, or low-speed vortex. The solutions were stored for up to 2 weeks at 2-8° C. and up to 24 hours at room temperature. Laquinimod solutions were prepared under light protection and were protected from light for the duration of the experiment. […] One 100 mg/4 ml in olive oil dose was prepared every 2 days and stored at room temperature.
Thirty two female albino Lewis rats were randomly divided into four (4) groups of eight (8) rats. Ocular inflammation was induced at Day 1 by injection of 100 μl of human S-antigen (100 μg) in Freud's complete adjuvant (4 mg/ml) into the footpad of each rat, and an intraperitoneal injection of 1 μg/100 μl pertussis toxin.
Beginning on Day 7 until the end of the study, each animal group was treated with a test solution in both eyes as shown in Table 1:
Both eyes of each rat were examined with a slit-lamp at baseline and then every 2 days from Day 10 to the end of the study. Fifteen minutes prior to each examination, 10 μl of Mydriaticum (0.5% tropicamide) was instilled for papillary dilatation.
The effect of test material and reference material on ocular inflammation was measured with slit lamp evaluation and scored using the clinical scoring as shown in Table 3: […]

[2] = test system: S-antigen-induced uveitis in albino rats; assay: Ocular vs oral laquinimod in S-antigen-induced uveitis in albino rats, histological analysis (Example 10); format: in vivo, rat; details: for Histological ocular evaluation, % Inhibition: Day 19
[3] = test system: subject suffering from uveitis; assay: Laquinimod for treating uveitis (Example 4); format: in vivo; details: laquinimod composition administered to the eye, once daily
Procedure: In the examples 4-9 below, the administration of the composition is once daily. The administration can be repeated daily for a period of one, two, three or four days, up to 14 days, or longer as necessary. A laquinimod composition as described herein is administered to the eye of a subject suffering from uveitis. The administration of the composition is effective to treat the subject suffering from uveitis. The administration of the composition is also effective to reduce intraocular inflammation in the subject. The administration of the composition is also effective to reduce retina tissue destruction in the subject.

[4] = test system: subject suffering from bacterial conjunctivitis; assay: Laquinimod for treating bacterial conjunctivitis (Example 5); format: in vivo; details: laquinimod composition, once daily
Procedure: (§1) In the examples 4-9 below, the administration of the composition is once daily. The administration can be repeated daily for a period of one, two, three or four days, up to 14 days, or longer as necessary.
A laquinimod composition as described herein is administered to a subject suffering from bacterial conjunctivitis. The administration of the composition is effective to treat the subject suffering from bacterial conjunctivitis. The administration of the composition is also effective to reduce intraocular inflammation in the subject.

[5] = test system: subject suffering from viral conjunctivitis; assay: Laquinimod for treating viral conjunctivitis (Example 6); format: in vivo; details: laquinimod composition, once daily
Procedure: as §1
A laquinimod composition as described herein is administered to a subject suffering from viral conjunctivitis. The administration of the composition is effective to treat the subject suffering from viral conjunctivitis. The administration of the composition is also effective to reduce intraocular inflammation in the subject.

[6] = test system: subject suffering from an inflammation of the orbital tissue, the lacrimal apparatus, the eyelid, the cornea, the retina or the optic pathway; assay: Laquinimod for treating inflammation in the eye (Example 7); format: in vivo; details: laquinimod composition, once daily
Procedure: as §1
A laquinimod composition as described herein is administered to a subject suffering from an inflammation of the orbital tissue, the lacrimal apparatus, the eyelid, the cornea, the retina or the optic pathway in the eye. The administration of the composition is effective to treat the subject suffering from the inflammation. The administration of the composition is also effective to reduce intraocular inflammation in the subject.

[7] = test system: subject suffering from allergic conjunctivitis; assay: Laquinimod for treating allergic conjunctivitis (Example 8); format: in vivo; details: 0.2 mg-0.5 mg laquinimod/day
Procedure: as §1
A laquinimod composition as described herein is administered to a subject suffering from allergic conjunctivitis at 0.2 mg-0.5 mg laquinimod/day. The administration of the composition is effective to treat the subject suffering from allergic conjunctivitis. The administration of the composition is also effective to reduce intraocular inflammation in the subject. The administration of the composition is also effective to inhibit late ocular anaphylaxis in the subject. The administration of the composition is also effective reduce eosinophil infiltration into the conjunctiva of the subject.

[8] = test system: subject suffering from an OID; assay: Laquinimod for treating OID (Example 9); format: in vivo; details: laquinimod composition, once daily
Procedure: as §1
A laquinimod composition as described herein is administered to a subject suffering from an OID. The administration of the composition is effective to treat the subject suffering from the OID. The administration of the composition is also effective to reduce intraocular inflammation in the subject.

[9] = 1%, 1× 10 μl instillation/day for 7 days in both eyes
[10] = 1%, 1×/day for 7 days, 1 mL/kg, per os
[11] = 5%, 1× 10 μl instillation/day for 7 days in both eyes
[12] = 5%, 1×/day for 7 days, 1 mL/kg, per os

CCN(C(=O)c1c(O)c2c(Cl)cccc2n(C)c1=O)c1ccccc1 [Laquinimod, laquinimod]
Slit lamp ocular evaluation of both eyes, Incidence % ([1]; 1% Laquinimod, Baseline): 0.0% | Slit lamp ocular evaluation of both eyes, mean clinical score ([1]; 1% Laquinimod, Baseline): 0.0 | Slit lamp ocular evaluation of both eyes, Incidence % ([1]; 1% Laquinimod, Day 10): 6.3% | Slit lamp ocular evaluation of both eyes, mean clinical score ([1]; 1% Laquinimod, Day 10): 0.1 | Slit lamp ocular evaluation of both eyes, Incidence % ([1]; 1% Laquinimod, Day 12): 6.3% | Slit lamp ocular evaluation of both eyes, mean clinical score ([1]; 1% Laquinimod, Day 12): 0.1 | Slit lamp ocular evaluation of both eyes, Incidence % ([1]; 1% Laquinimod, Day 14): 18.8% | Slit lamp ocular evaluation of both eyes, mean clinical score ([1]; 1% Laquinimod, Day 14): 0.8 | Slit lamp ocular evaluation of both eyes, Incidence % ([1]; 1% Laquinimod, Day 16): 31.3% | Slit lamp ocular evaluation of both eyes, mean clinical score ([1]; 1% Laquinimod, Day 16): 1.3 | Slit lamp ocular evaluation of both eyes, mean clinical score ([1]; 1% Laquinimod, Day 16, listed as laquinimod): 1.3±2.1 | Slit lamp ocular evaluation of both eyes, Incidence % ([1]; 5% Laquinimod, Baseline): 0.0% | Slit lamp ocular evaluation of both eyes, mean clinical score ([1]; 5% Laquinimod, Baseline): 0.0 | Slit lamp ocular evaluation of both eyes, Incidence % ([1]; 5% Laquinimod, Day 10): 0.0% | Slit lamp ocular evaluation of both eyes, mean clinical score ([1]; 5% Laquinimod, Day 10): 0.0 | Slit lamp ocular evaluation of both eyes, Incidence % ([1]; 5% Laquinimod, Day 12): 0.0% | Slit lamp ocular evaluation of both eyes, mean clinical score ([1]; 5% Laquinimod, Day 12): 0.0 | Slit lamp ocular evaluation of both eyes, Incidence % ([1]; 5% Laquinimod, Day 14): 6.3% | Slit lamp ocular evaluation of both eyes, mean clinical score ([1]; 5% Laquinimod, Day 14): 0.3 | Slit lamp ocular evaluation of both eyes, Incidence % ([1]; 5% Laquinimod, Day 16): 12.5% | Slit lamp ocular evaluation of both eyes, mean clinical score ([1]; 5% Laquinimod, Day 16): 0.6 | Slit lamp ocular evaluation of both eyes, mean clinical score ([1]; 5% Laquinimod, Day 16, listed as laquinimod): 0.6±1.5 | rats tested that demonstrated no intraocular inflammation ([1]; 5% laquinimod solution once per day, Day 16): Six out of eight | Histological ocular evaluation (scale 0-7) Both Eyes/Day 19, mean [2, 9]: 2.8 | Histological ocular evaluation, % Inhibition [2, 9]: 7.00% | Histological ocular evaluation (scale 0-7) Both Eyes/Day 19, mean [2, 10]: 2.3 | Histological ocular evaluation, % Inhibition [2, 10]: 23.00% | Histological ocular evaluation (scale 0-7) Both Eyes/Day 19, mean [2, 11]: 1.8 | Histological ocular evaluation, % Inhibition [2, 11]: 40.00% | Histological ocular evaluation (scale 0-7) Both Eyes/Day 19, mean [2, 12]: 1.2 | Histological ocular evaluation, % Inhibition [2, 12]: 60.00% | treat the subject suffering from uveitis [3]: effective | reduce intraocular inflammation in the subject ([3]; uveitis): effective | reduce retina tissue destruction in the subject ([3]; uveitis): effective | treat the subject suffering from bacterial conjunctivitis [4]: effective | reduce intraocular inflammation in the subject ([4]; bacterial conjunctivitis): effective | treat the subject suffering from viral conjunctivitis [5]: effective | reduce intraocular inflammation in the subject ([5]; viral conjunctivitis): effective | reduce intraocular inflammation in the subject ([6]; inflammation in the eye): effective | treat the subject suffering from the inflammation ([6]; inflammation of orbital tissue, lacrimal apparatus, eyelid, cornea, retina or optic pathway): effective | treat the subject suffering from allergic conjunctivitis [7]: effective | inhibit late ocular anaphylaxis in the subject ([7]; allergic conjunctivitis): effective | reduce eosinophil infiltration into the conjunctiva of the subject ([7]; allergic conjunctivitis): effective | reduce intraocular inflammation in the subject ([7]; allergic conjunctivitis): effective | treat the subject suffering from the OID [8]: effective | reduce intraocular inflammation in the subject ([8]; OID): effective
